Common to all, as to assay type: functional
The subject of one experiment is Escherichia coli. As to the kind of experiment: Antibacterial activity against Escherichia coli ATCC 25922 after 18 to 24 hrs.
Another experiment relates to Enterococcus faecalis. As to the kind of experiment: Antibacterial activity against Enterococcus faecalis 03-4 after 18 to 24 hrs.
A further experiment deals with Klebsiella pneumoniae. As to the kind of experiment: Antibacterial activity against Klebsiella pneumoniae 05-4 after 18 to 24 hrs.
The next experiment concerns Pseudomonas aeruginosa. Put plainly: Antibacterial activity against Pseudomonas aeruginosa […] after 18 to 24 hrs.
A further experiment concerns Streptococcus pneumoniae. Put plainly: Antibacterial activity against Streptococcus pneumoniae 05-9 after 18 to 24 hrs.
Experiment [1] concerns Staphylococcus aureus. Put plainly: Antibacterial activity against methicillin-sensitive Staphylococcus aureus 04-4 after 18 to 24 hrs.
The test system of experiment [2] is Staphylococcus aureus. Put plainly: Antibacterial activity against methicillin-resistant Staphylococcus aureus 05-3 after 18 to 24 hrs.

Structures are written as SMILES. In brackets after ≈: the same amount, converted by molar mass.

Usually MIC stands for the lowest concentration that inhibits growth of the organism. Read a high MIC as a less susceptible organism. For the molecule `CNC1CCN(c2nc3c(cc2F)c(=O)c(C(=O)O)cn3C2CC2)C/C1=N\OC` (stereo not drawn), the MIC is 1 µg/mL (≈ 2.48 µM) against Escherichia coli; under 0.001 µg/mL in the experiment on Enterococcus faecalis; 1 µg/mL (≈ 2.48 µM) against Klebsiella pneumoniae; 0.06 µg/mL (≈ 0.149 µM) in the experiment on Pseudomonas aeruginosa; under 0.001 µg/mL against Streptococcus pneumoniae; under 0.001 µg/mL in the experiment on Staphylococcus aureus [1]. Further, in the experiment with Staphylococcus aureus [2], 0.5 µg/mL (≈ 1.24 µM) was the least that counted as inhibitory (MIC).
For the molecule `CO/N=C1\CN(c2nc3c(cc2F)c(=O)c(C(=O)O)cn3C2CC2)CCC1NC1CC1` (stereo not drawn), the MIC against Escherichia coli was 16 µg/mL (≈ 37.3 µM); against Enterococcus faecalis, 0.004 µg/mL (≈ 0.00931 µM); in the experiment on Klebsiella pneumoniae, 16 µg/mL (≈ 37.3 µM); with Pseudomonas aeruginosa, 1 µg/mL (≈ 2.33 µM); in the experiment with Streptococcus pneumoniae, 0.004 µg/mL (≈ 0.00931 µM); in the experiment on Staphylococcus aureus [1], 0.015 µg/mL (≈ 0.0349 µM). The molecule also came in with an MIC with Staphylococcus aureus [2] of 2 µg/mL (≈ 4.66 µM).
On to `CCO/N=C1\CCN(c2nc3c(cc2F)c(=O)c(C(=O)O)cn3C2CC2)CC1NC` (stereo not drawn), for which the MIC with Escherichia coli was 8 µg/mL (≈ 19.2 µM); in the experiment on Enterococcus faecalis, under 0.001 µg/mL; against Klebsiella pneumoniae, 16 µg/mL (≈ 38.3 µM); against Pseudomonas aeruginosa it was 1 µg/mL (≈ 2.4 µM); in the experiment with Streptococcus pneumoniae, under 0.001 µg/mL; against Staphylococcus aureus [1], under 0.001 µg/mL. Besides, the lowest concentration to inhibit growth against Staphylococcus aureus [2] (MIC) was 4 µg/mL (≈ 9.58 µM).
`CCCO/N=C1\CCN(c2nc3c(cc2F)c(=O)c(C(=O)O)cn3C2CC2)CC1NC` (stereo not drawn): the MIC worked out at 8 µg/mL (≈ 18.5 µM) against Escherichia coli; 0.015 µg/mL (≈ 0.0348 µM) against Enterococcus faecalis; 8 µg/mL (≈ 18.5 µM) against Klebsiella pneumoniae; 2 µg/mL (≈ 4.64 µM) in the experiment with Pseudomonas aeruginosa; 0.015 µg/mL (≈ 0.0348 µM) in the experiment on Streptococcus pneumoniae; 0.03 µg/mL (≈ 0.0695 µM) in the experiment with Staphylococcus aureus [1]. This molecule returned an MIC against Staphylococcus aureus [2] of 16 µg/mL (≈ 37.1 µM).
On to `CO/N=C1\CN(c2nc3c(cc2F)c(=O)c(C(=O)O)cn3C2CC2)CCC1N` (stereo not drawn), for which the minimal inhibitory concentration (MIC) came to 1 µg/mL (≈ 2.57 µM) in the experiment on Escherichia coli; 2 µg/mL (≈ 5.14 µM) in the experiment with Enterococcus faecalis; 1 µg/mL (≈ 2.57 µM) in the experiment on Klebsiella pneumoniae; 1 µg/mL (≈ 2.57 µM) in the experiment on Pseudomonas aeruginosa; 2 µg/mL (≈ 5.14 µM) in the experiment with Streptococcus pneumoniae; 2 µg/mL (≈ 5.14 µM) in the experiment with Staphylococcus aureus [1]. Besides, the MIC in the experiment with Staphylococcus aureus [2] turned out to be 4 µg/mL (≈ 10.3 µM).
Turning to `CNC1CN(c2nc3c(cc2F)c(=O)c(C(=O)O)cn3C2CC2)CC/C1=N\OCc1ccccc1` (stereo not drawn), the MIC with Escherichia coli stood at 16 µg/mL (≈ 33.4 µM); in the experiment on Enterococcus faecalis, 0.125 µg/mL (≈ 0.261 µM); with Klebsiella pneumoniae, 16 µg/mL (≈ 33.4 µM); in the experiment with Pseudomonas aeruginosa it was 2 µg/mL (≈ 4.17 µM); in the experiment with Streptococcus pneumoniae, 0.25 µg/mL (≈ 0.521 µM); in the experiment with Staphylococcus aureus [1], 0.125 µg/mL (≈ 0.261 µM). The molecule further showed an MIC in the experiment with Staphylococcus aureus [2] of 16 µg/mL (≈ 33.4 µM).
With `CO/N=C1\CCN(c2nc3c(cc2F)c(=O)c(C(=O)O)cn3C2CC2)CC1NC1CC1` (stereo not drawn), the MIC in the experiment on Escherichia coli was 16 µg/mL (≈ 37.3 µM); against Enterococcus faecalis it was 0.004 µg/mL (≈ 0.00931 µM); with Klebsiella pneumoniae it was 16 µg/mL (≈ 37.3 µM); with Pseudomonas aeruginosa it was 8 µg/mL (≈ 18.6 µM); in the experiment with Streptococcus pneumoniae it was 0.004 µg/mL (≈ 0.00931 µM); against Staphylococcus aureus [1], 0.015 µg/mL (≈ 0.0349 µM). The molecule further gave an MIC with Staphylococcus aureus [2] of 2 µg/mL (≈ 4.66 µM).
For `CO/N=C1\CCN(c2nc3c(cc2F)c(=O)c(C(=O)O)cn3C2CC2)CC1N(C)C` (stereo not drawn), the MIC in the experiment with Escherichia coli is 8 µg/mL (≈ 19.2 µM); against Enterococcus faecalis, 0.015 µg/mL (≈ 0.0359 µM); against Klebsiella pneumoniae, 1 µg/mL (≈ 2.4 µM); against Pseudomonas aeruginosa it was 0.125 µg/mL (≈ 0.299 µM); against Streptococcus pneumoniae it was 0.015 µg/mL (≈ 0.0359 µM); with Staphylococcus aureus [1], 0.004 µg/mL (≈ 0.00958 µM). In addition, the MIC against Staphylococcus aureus [2] came to 1 µg/mL (≈ 2.4 µM).
For `CCO/N=C1\CCN(c2nc3c(cc2F)c(=O)c(C(=O)O)cn3C2CC2)CC1N(C)C` (stereo not drawn), the MIC in the experiment with Escherichia coli turned out to be 8 µg/mL (≈ 18.5 µM); in the experiment with Enterococcus faecalis it was 0.004 µg/mL (≈ 0.00927 µM); against Klebsiella pneumoniae it was 2 µg/mL (≈ 4.64 µM); against Pseudomonas aeruginosa, 1 µg/mL (≈ 2.32 µM); against Streptococcus pneumoniae, 0.002 µg/mL (≈ 0.00464 µM); against Staphylococcus aureus [1], 0.015 µg/mL (≈ 0.0348 µM). This molecule also registered an MIC against Staphylococcus aureus [2] of 1 µg/mL (≈ 2.32 µM).
Consider `CCCO/N=C1\CCN(c2nc3c(cc2F)c(=O)c(C(=O)O)cn3C2CC2)CC1N(C)C` (stereo not drawn), for which the MIC against Escherichia coli is 16 µg/mL (≈ 35.9 µM); with Enterococcus faecalis, 0.25 µg/mL (≈ 0.561 µM); against Klebsiella pneumoniae, 16 µg/mL (≈ 35.9 µM); in the experiment on Pseudomonas aeruginosa, 2 µg/mL (≈ 4.49 µM); with Streptococcus pneumoniae it was 0.125 µg/mL (≈ 0.281 µM); in the experiment on Staphylococcus aureus [1] it was 0.5 µg/mL (≈ 1.12 µM). The molecule further had an MIC against Staphylococcus aureus [2] of 2 µg/mL (≈ 4.49 µM).
As to `CNC1CN(c2nc3c(cc2F)c(=O)c(C(=O)O)cn3C2CC2)CC/C1=N\OC` (stereo not drawn), the MIC was 4 µg/mL (≈ 9.92 µM) with Escherichia coli; under 0.001 µg/mL in the experiment on Enterococcus faecalis; 2 µg/mL (≈ 4.96 µM) against Klebsiella pneumoniae; 1 µg/mL (≈ 2.48 µM) in the experiment with Pseudomonas aeruginosa; under 0.001 µg/mL in the experiment with Streptococcus pneumoniae; under 0.001 µg/mL against Staphylococcus aureus [1]. The molecule also returned an MIC with Staphylococcus aureus [2] of 4 µg/mL (≈ 9.92 µM).
For `CNC1CCN(c2nc3c(cc2F)c(=O)c(C(=O)O)cn3C2CC2)C/C1=N\OCc1ccccc1` (stereo not drawn), the MIC is 8 µg/mL (≈ 16.7 µM) in the experiment on Escherichia coli; under 0.001 µg/mL in the experiment on Enterococcus faecalis; 4 µg/mL (≈ 8.34 µM) against Klebsiella pneumoniae; 0.5 µg/mL (≈ 1.04 µM) in the experiment on Pseudomonas aeruginosa; under 0.001 µg/mL in the experiment on Streptococcus pneumoniae; under 0.001 µg/mL against Staphylococcus aureus [1]. Moreover, in the experiment on Staphylococcus aureus [2], the MIC is 2 µg/mL (≈ 4.17 µM).
For `CO/N=C1\CCN(c2nc3c(cc2F)c(=O)c(C(=O)O)cn3C2CC2)CC1N` (stereo not drawn), the MIC with Escherichia coli turned out to be 8 µg/mL (≈ 20.5 µM); in the experiment on Enterococcus faecalis, 8 µg/mL (≈ 20.5 µM); in the experiment with Klebsiella pneumoniae it was 2 µg/mL (≈ 5.14 µM); in the experiment with Pseudomonas aeruginosa, 4 µg/mL (≈ 10.3 µM); with Streptococcus pneumoniae, 4 µg/mL (≈ 10.3 µM); in the experiment on Staphylococcus aureus [1], 4 µg/mL (≈ 10.3 µM). The same molecule returned an MIC against Staphylococcus aureus [2] of 16 µg/mL (≈ 41.1 µM).
As for `CN(C)C1CN(c2nc3c(cc2F)c(=O)c(C(=O)O)cn3C2CC2)CC/C1=N\OCc1ccccc1` (stereo not drawn), the MIC against Escherichia coli turned out to be 16 µg/mL (≈ 32.4 µM); in the experiment on Enterococcus faecalis, 0.06 µg/mL (≈ 0.122 µM); in the experiment on Klebsiella pneumoniae it was 16 µg/mL (≈ 32.4 µM); in the experiment with Pseudomonas aeruginosa it was 2 µg/mL (≈ 4.05 µM); against Streptococcus pneumoniae, 0.015 µg/mL (≈ 0.0304 µM); against Staphylococcus aureus [1], 0.015 µg/mL (≈ 0.0304 µM). Moreover, in the experiment on Staphylococcus aureus [2], the MIC stood at 4 µg/mL (≈ 8.1 µM).
As for `CCO/N=C1\CN(c2nc3c(cc2F)c(=O)c(C(=O)O)cn3C2CC2)CCC1NC` (stereo not drawn), the MIC was 4 µg/mL (≈ 9.58 µM) in the experiment on Escherichia coli; under 0.001 µg/mL in the experiment with Enterococcus faecalis; 1 µg/mL (≈ 2.4 µM) in the experiment on Klebsiella pneumoniae; 0.06 µg/mL (≈ 0.144 µM) in the experiment with Pseudomonas aeruginosa; under 0.001 µg/mL against Streptococcus pneumoniae; under 0.001 µg/mL with Staphylococcus aureus [1]. Further, the MIC in the experiment with Staphylococcus aureus [2] was 2 µg/mL (≈ 4.79 µM).
As to `CCCO/N=C1\CN(c2nc3c(cc2F)c(=O)c(C(=O)O)cn3C2CC2)CCC1NC` (stereo not drawn), the MIC amounted to 4 µg/mL (≈ 9.27 µM) against Escherichia coli; 0.06 µg/mL (≈ 0.139 µM) in the experiment with Enterococcus faecalis; 4 µg/mL (≈ 9.27 µM) against Klebsiella pneumoniae; 0.06 µg/mL (≈ 0.139 µM) in the experiment on Pseudomonas aeruginosa; 0.03 µg/mL (≈ 0.0695 µM) against Streptococcus pneumoniae; 0.06 µg/mL (≈ 0.139 µM) with Staphylococcus aureus [1]. This molecule gave an MIC in the experiment with Staphylococcus aureus [2] of 2 µg/mL (≈ 4.64 µM).
On to `CO/N=C1\CN(c2nc3c(cc2F)c(=O)c(C(=O)O)cn3C2CC2)CC1CN` (stereo not drawn) [GEMIFLOXACIN], for which the MIC in the experiment on Escherichia coli stood at 0.125 µg/mL (≈ 0.321 µM); against Enterococcus faecalis it was 0.004 µg/mL (≈ 0.0103 µM); with Klebsiella pneumoniae, 0.125 µg/mL (≈ 0.321 µM); against Pseudomonas aeruginosa, 0.125 µg/mL (≈ 0.321 µM); against Streptococcus pneumoniae, 0.004 µg/mL (≈ 0.0103 µM); against Staphylococcus aureus [1], 0.004 µg/mL (≈ 0.0103 µM). Also, in the experiment with Staphylococcus aureus [2], the MIC came to 0.004 µg/mL (≈ 0.0103 µM).
Regarding `CC(=O)NC[C@H]1CN(c2ccc(N3CCOCC3)c(F)c2)C(=O)O1` [LINEZOLID], the MIC with Enterococcus faecalis came out at 0.125 µg/mL (≈ 0.371 µM); in the experiment on Staphylococcus aureus [1] it was 0.5 µg/mL (≈ 1.48 µM); with Staphylococcus aureus [2], 1 µg/mL (≈ 2.96 µM).
Molecule `CN[C@H](CC(C)C)C(=O)N[C@H]1C(=O)N[C@@H](CC(N)=O)C(=O)N[C@H]2C(=O)N[C@H]3C(=O)N[C@H](C(=O)N[C@H](C(=O)O)c4cc(O)cc(O)c4-c4cc3ccc4O)[C@H](O)c3ccc(c(Cl)c3)Oc3cc2cc(c3O[C@@H]2O[C@H](CO)[C@@H](O)[C@H](O)[C@H]2O[C@H]2C[C@](C)(N)[C@H](O)[C@H](C)O2)Oc2ccc(cc2Cl)[C@H]1O` [VANCOMYCIN] returned an MIC in the experiment on Streptococcus pneumoniae of 0.004 µg/mL (≈ 0.00276 µM).

(Values after ChEMBL document CHEMBL1145415, “Synthesis and antibacterial activity of novel fluoroquinolones containing substituted piperidines” (2007).)
